Data as given in PubChem BioAssay AID1963842 (Molecular Pharmacology Branch, DTP, NCI, 2024).

System: 677734-321-R-J1-PDC complex spheroid viability
Experiment: Anticancer human tumor 677734-321-R-J1-PDC patient-derived soft tissue sarcoma cell line growth inhibition [POLQ]
Settings: for IC50: curve of first compound; for viability, T/C: stronger effect = lower value; active = viability on the fitted dose curve at most 10% of control; inactive = the rest
Outline: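 PDC + HUVEC + MSC complex spheroids; POLQ inhibitors ± partner drugs; top conc. at/near clinical Cmax, else 10 microM (SN-38 1 microM), half-log dilutions; 37 degrees C, 5% CO2.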

[1] = second compound 0.0316 µM, first compound 0.0316 µM
[2] = second compound 0.0316 µM, first compound 0.1 µM
[3] = second compound 0.0316 µM, first compound 0.316 µM
[4] = second compound 0.0316 µM, first compound 1 µM
[5] = second compound 0.1 µM, first compound 0.0316 µM
[6] = second compound 0.1 µM, first compound 0.1 µM
[7] = second compound 0.1 µM, first compound 0.316 µM
[8] = second compound 0.1 µM, first compound 1 µM
[9] = second compound 0.316 µM, first compound 0.0316 µM
[10] = second compound 0.316 µM, first compound 0.1 µM
[11] = second compound 0.316 µM, first compound 0.316 µM
[12] = second compound 0.316 µM, first compound 1 µM
[13] = second compound 1 µM, first compound 0.0316 µM
[14] = second compound 1 µM, first compound 0.1 µM
[15] = second compound 1 µM, first compound 0.316 µM
[16] = second compound 1 µM, first compound 1 µM
[17] = second compound 3.16 µM, first compound 0.0316 µM
[18] = second compound 3.16 µM, first compound 0.1 µM
[19] = second compound 3.16 µM, first compound 0.316 µM
[20] = second compound 3.16 µM, first compound 1 µM
[21] = second compound 10 µM, first compound 0.0316 µM
[22] = second compound 10 µM, first compound 0.1 µM
[23] = second compound 10 µM, first compound 0.316 µM
[24] = second compound 10 µM, first compound 1 µM
[25] = second compound 0.0316 µM, first compound 3.16 µM
[26] = second compound 0.0316 µM, first compound 10 µM
[27] = second compound 0.1 µM, first compound 3.16 µM
[28] = second compound 0.1 µM, first compound 10 µM
[29] = second compound 0.316 µM, first compound 3.16 µM
[30] = second compound 0.316 µM, first compound 10 µM
[31] = second compound 1 µM, first compound 3.16 µM
[32] = second compound 1 µM, first compound 10 µM
[33] = second compound 3.16 µM, first compound 3.16 µM
[34] = second compound 3.16 µM, first compound 10 µM
[35] = second compound 10 µM, first compound 3.16 µM
[36] = second compound 10 µM, first compound 10 µM
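Note: spheroids exposed to compounds for one week.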
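Throughout, for viability, T/C: 100% = vehicle DMSO treated spheroids.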

COc1cccc(OCCCN)c1-c1cc(Nc2cnc(C#N)cn2)n[nH]1 + COC1C(OC(N)=O)C(O)C(Oc2ccc3c(O)c(NC(=O)c4ccc(O)c(CC=C(C)C)c4)c(=O)oc3c2C)OC1(C)C
0.00748 µM: IC50 (second compound 0.1 µM)
active: viability, T/C [2] 9.46% | viability, T/C [3] 8.59% | viability, T/C [4] 8.45% | viability, T/C [6] 8.91% | viability, T/C [7] 9.88% | viability, T/C [8] 7.56% | viability, T/C [10] 9.01% | viability, T/C [11] 10.5% | viability, T/C [12] 7.41%
0.00745 µM: IC50 (second compound 0.0316 µM)
0.00705 µM: IC50 (second compound 0.316 µM)
0.00814 µM: IC50 (second compound 1 µM)
inactive: viability, T/C (second compound 0.0316 µM, first compound 0.00316 µM) 97.1% | viability, T/C (second compound 0.0316 µM, first compound 0.01 µM) 33.8% | viability, T/C [1] 12.8% | viability, T/C (second compound 0.1 µM, first compound 0.00316 µM) 92.5% | viability, T/C (second compound 0.1 µM, first compound 0.01 µM) 35.6% | viability, T/C [5] 11.9% | viability, T/C (second compound 0.316 µM, first compound 0.00316 µM) 97.3% | viability, T/C (second compound 0.316 µM, first compound 0.01 µM) 29% | viability, T/C [9] 14.7% | viability, T/C (second compound 1 µM, first compound 0.00316 µM) 102% | viability, T/C (second compound 1 µM, first compound 0.01 µM) 38.5% | viability, T/C [13] 9.9% | viability, T/C [14] 11.4% | viability, T/C [15] 11.9% | viability, T/C [16] 8.34% | viability, T/C (second compound 3.16 µM, first compound 0.00316 µM) 103% | viability, T/C (second compound 3.16 µM, first compound 0.01 µM) 30.6% | viability, T/C [17] 11.9% | viability, T/C [18] 9.84% | viability, T/C [19] 12.3% | viability, T/C [20] 9.73% | viability, T/C (second compound 10 µM, first compound 0.00316 µM) 88.4% | viability, T/C (second compound 10 µM, first compound 0.01 µM) 35.7% | viability, T/C [21] 12.3% | viability, T/C [22] 12% | viability, T/C [23] 10.3% | viability, T/C [24] 9.04%
0.00732 µM: IC50 (second compound 10 µM)
0.00737 µM: IC50 (second compound 3.16 µM)

COc1ccc([C@@H](O)c2cc(-c3ncnc4cc(N5CCOCC5)ccc34)c(F)cc2Cl)nn1 + Nc1ccc(C#CCN(C(=O)Cc2ncc(C(F)(F)F)cc2C(F)(F)F)c2ccc(F)cc2)nn1
7.37 µM: IC50 (second compound 0.0316 µM)
> 10 µM: IC50 (second compound 10 µM)
6.66 µM: IC50 (second compound 3.16 µM)
8.81 µM: IC50 (second compound 0.1 µM)
7.89 µM: IC50 (second compound 1 µM)
inactive: viability, T/C [1] 89.5% | viability, T/C [2] 96.2% | viability, T/C [3] 76.8% | viability, T/C [4] 88.4% | viability, T/C [25] 72.5% | viability, T/C [26] 41.7% | viability, T/C [5] 90.2% | viability, T/C [6] 106% | viability, T/C [7] 96.2% | viability, T/C [8] 90.8% | viability, T/C [27] 67.4% | viability, T/C [28] 47.8% | viability, T/C [9] 105% | viability, T/C [10] 93.1% | viability, T/C [11] 80.9% | viability, T/C [12] 95.4% | viability, T/C [29] 71.5% | viability, T/C [30] 47.6% | viability, T/C [13] 108% | viability, T/C [14] 93.9% | viability, T/C [15] 94% | viability, T/C [16] 90.4% | viability, T/C [31] 73.8% | viability, T/C [32] 43.2% | viability, T/C [17] 103% | viability, T/C [18] 92.6% | viability, T/C [19] 82.8% | viability, T/C [20] 75.5% | viability, T/C [33] 61.1% | viability, T/C [34] 43.4% | viability, T/C [21] 102% | viability, T/C [22] 99.7% | viability, T/C [23] 77.7% | viability, T/C [24] 73.7% | viability, T/C [35] 72.9% | viability, T/C [36] 45.8%
9.17 µM: IC50 (second compound 0.316 µM)

O=c1[nH]cc(F)c(=O)[nH]1 + Nc1ccc(C#CCN(C(=O)Cc2ncc(C(F)(F)F)cc2C(F)(F)F)c2ccc(F)cc2)nn1
inactive: viability, T/C [1] 101% | viability, T/C [2] 113% | viability, T/C [3] 93.8% | viability, T/C [4] 91.9% | viability, T/C [25] 68.7% | viability, T/C [26] 54.7% | viability, T/C [5] 117% | viability, T/C [6] 112% | viability, T/C [7] 101% | viability, T/C [8] 108% | viability, T/C [27] 64.9% | viability, T/C [28] 54.4% | viability, T/C [9] 103% | viability, T/C [10] 105% | viability, T/C [11] 119% | viability, T/C [12] 76.5% | viability, T/C [29] 66.5% | viability, T/C [30] 54.9% | viability, T/C [13] 107% | viability, T/C [14] 93.8% | viability, T/C [15] 96.4% | viability, T/C [16] 90.8% | viability, T/C [31] 61.3% | viability, T/C [32] 56.4% | viability, T/C [17] 102% | viability, T/C [18] 99% | viability, T/C [19] 103% | viability, T/C [20] 89% | viability, T/C [33] 65.1% | viability, T/C [34] 53.3% | viability, T/C [21] 101% | viability, T/C [22] 110% | viability, T/C [23] 95.5% | viability, T/C [24] 94.7% | viability, T/C [35] 68.9% | viability, T/C [36] 54.5%
> 10 µM: IC50 (second compound 0.0316 µM) | IC50 (second compound 0.1 µM) | IC50 (second compound 0.316 µM) | IC50 (second compound 1 µM) | IC50 (second compound 3.16 µM) | IC50 (second compound 10 µM)

COc1ccc([C@@H](O)c2cc(-c3ncnc4cc(N5CCOCC5)ccc34)c(F)cc2Cl)nn1 + COC1C(OC(N)=O)C(O)C(Oc2ccc3c(O)c(NC(=O)c4ccc(O)c(CC=C(C)C)c4)c(=O)oc3c2C)OC1(C)C
9.58 µM: IC50 (second compound 0.316 µM)
9.81 µM: IC50 (second compound 0.1 µM)
> 10 µM: IC50 (second compound 0.0316 µM) | IC50 (second compound 1 µM) | IC50 (second compound 3.16 µM) | IC50 (second compound 10 µM)
inactive: viability, T/C [1] 106% | viability, T/C [2] 112% | viability, T/C [3] 99.7% | viability, T/C [4] 105% | viability, T/C [25] 82.1% | viability, T/C [26] 56.9% | viability, T/C [5] 112% | viability, T/C [6] 107% | viability, T/C [7] 100% | viability, T/C [8] 98.2% | viability, T/C [27] 83.8% | viability, T/C [28] 48.8% | viability, T/C [9] 110% | viability, T/C [10] 104% | viability, T/C [11] 104% | viability, T/C [12] 98.4% | viability, T/C [29] 82.5% | viability, T/C [30] 48.6% | viability, T/C [13] 111% | viability, T/C [14] 102% | viability, T/C [15] 97.3% | viability, T/C [16] 100% | viability, T/C [31] 79.4% | viability, T/C [32] 52.5% | viability, T/C [17] 107% | viability, T/C [18] 106% | viability, T/C [19] 106% | viability, T/C [20] 93.1% | viability, T/C [33] 79.5% | viability, T/C [34] 56.1% | viability, T/C [21] 111% | viability, T/C [22] 105% | viability, T/C [23] 104% | viability, T/C [24] 108% | viability, T/C [35] 85.1% | viability, T/C [36] 50.9%
